Common to all, as to assay type: cell-based
For experiment [1], the system named is Staph. aureus C-57. Briefly: MIC by agar dilution, Staph. aureus C-57. The settings on record: Staphylococcus aureus, C57, 17 h, Mueller-Hinton agar, read-out: Minimal Inhibitory Concentration (MIC). An outline of the steps: (§1)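 MIC is the endpoint, obtained by agar dilution after 17±1 hours at 35°-37° C. on Mueller-Hinton agar containing doubling compound concentrations; strains inoculated at 10^6 CFU per ml.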

In experiment [2] the test system is K. pneumoniae NCTC 9632. As to the kind of experiment: MIC by agar dilution, K. pneumoniae NCTC 9632. The note with it: Klebsiella pneumoniae, NCTC9632, 17 h; K. pneumoniae NCTC 9632; agar dilution, Mueller-Hinton agar; read-out: Minimal Inhibitory Concentration (MIC). An outline of the steps: as §1
For orientation: In agar dilution, organisms are placed on agar that contains the substance at set levels.

For experiment [3], the system named is Staph. aureus C-5113. Briefly: MIC by agar dilution, Staph. aureus C-5113. The settings on record: Staphylococcus aureus, C5113, 17 h, Mueller-Hinton agar, read-out: Minimal Inhibitory Concentration (MIC). The procedure, abridged:
as §1

In experiment [4] the test system is E. coli DY-1. As to the kind of experiment: MIC by agar dilution, E. coli DY-1. The settings on record: Escherichia coli, DY1, 17 h; E. coli DY-1; agar dilution, Mueller-Hinton agar; read-out: Minimal Inhibitory Concentration (MIC). The procedure, abridged:
as §1

Experiment [5] deals with S. epidermidis ATCC 12228. As to the kind of experiment: MIC by agar dilution, S. epidermidis ATCC 12228. The note with it: Staphylococcus epidermidis, ATCC12228, 17 h; S. epidermidis ATCC 12228; agar dilution, Mueller-Hinton agar; read-out: Minimal Inhibitory Concentration (MIC). The procedure, abridged:
as §1

Experiment [6] relates to Staph. aureus ATCC 6538P. As to the kind of experiment: MIC by agar dilution, Staph. aureus ATCC 6538P. The settings on record: Staphylococcus aureus, ATCC6538P, 17 h; Staph. aureus ATCC 6538P; agar dilution, Mueller-Hinton agar; read-out: Minimal Inhibitory Concentration (MIC). An outline of the steps: as §1
The subject of experiment [7] is Ser. marcescens IFO 12648. As to the kind of experiment: MIC by agar dilution, Ser. marcescens IFO 12648. The settings on record: Serratia marcescens, IFO12648, 17 h; Ser. marcescens IFO 12648; agar dilution, Mueller-Hinton agar; read-out: Minimal Inhibitory Concentration (MIC). An outline of the steps: as §1
Experiment [8] concerns Ent. aerogenes IFO 12979. As to the kind of experiment: MIC by agar dilution, Ent. aerogenes IFO 12979. The note with it: Klebsiella aerogenes, IFO12979, 17 h, Mueller-Hinton agar, read-out: Minimal Inhibitory Concentration (MIC). The procedure, abridged:
as §1

In experiment [9] the test system is B. subtilis ATCC 6633. Briefly: MIC by agar dilution, B. subtilis ATCC 6633. The note with it: Bacillus subtilis, ATCC6633, 17 h; B. subtilis ATCC 6633; agar dilution, Mueller-Hinton agar; read-out: Minimal Inhibitory Concentration (MIC). The procedure, abridged:
as §1

For experiment [10], the system named is Staph. aureus Smith. Briefly: MIC by agar dilution, Staph. aureus Smith. The note with it: Staphylococcus aureus, 17 h, Mueller-Hinton agar, read-out: Minimal Inhibitory Concentration (MIC). An outline of the steps:
as §1

In experiment [11] the test system is Prov. stuartii IFO 12930. As to the kind of experiment: MIC by agar dilution, Prov. stuartii IFO 12930. The note with it: Providencia stuartii, IFO12930, 17 h, Mueller-Hinton agar, read-out: Minimal Inhibitory Concentration (MIC). The procedure, abridged:
as §1

The test system of experiment [12] is Staph. aureus C-5216. As to the kind of experiment: MIC by agar dilution, Staph. aureus C-5216. The note with it: Staphylococcus aureus, C5216, 17 h, Mueller-Hinton agar, read-out: Minimal Inhibitory Concentration (MIC). The procedure, abridged:
as §1

The subject of experiment [13] is Ps. aeruginosa DY-2. As to the kind of experiment: MIC by agar dilution, Ps. aeruginosa DY-2. The note with it: Pseudomonas aeruginosa, DY2, 17 h; Ps. aeruginosa DY-2; agar dilution, Mueller-Hinton agar; read-out: Minimal Inhibitory Concentration (MIC). The procedure, abridged: as §1
Experiment [14] concerns Ps. aeruginosa ATCC 10145. As to the kind of experiment: MIC by agar dilution, Ps. aeruginosa ATCC 10145. The settings on record: Pseudomonas aeruginosa, ATCC10145, 17 h, Mueller-Hinton agar, read-out: Minimal Inhibitory Concentration (MIC). The procedure, abridged:
as §1

Experiment [15] deals with M. morganii DY-1. Briefly: MIC by agar dilution, M. morganii DY-1. The note with it: Morganella morganii, DY1, 17 h; M. morganii DY-1; agar dilution, Mueller-Hinton agar; read-out: Minimal Inhibitory Concentration (MIC). The procedure, abridged: as §1
Experiment [16] concerns E. coli NIHJ JC-2. As to the kind of experiment: MIC by agar dilution, E. coli NIHJ JC-2. The note with it: Escherichia coli, NIHJJC2, 17 h; E. coli NIHJ JC-2; agar dilution, Mueller-Hinton agar; read-out: Minimal Inhibitory Concentration (MIC). The procedure, abridged: as §1
Experiment [17] relates to Ent. cloacae IFO 13535. As to the kind of experiment: MIC by agar dilution, Ent. cloacae IFO 13535. The settings on record: Enterobacter cloacae, IFO13535, 17 h; Ent. cloacae IFO 13535; agar dilution, Mueller-Hinton agar; read-out: Minimal Inhibitory Concentration (MIC). The procedure, abridged: as §1
The subject of experiment [18] is E. coli No. 29. As to the kind of experiment: MIC by agar dilution, E. coli No. 29. The note with it: Escherichia coli, 17 h; E. coli No. 29; agar dilution, Mueller-Hinton agar; read-out: Minimal Inhibitory Concentration (MIC). The procedure, abridged:
as §1

Experiment [19] deals with P. vulgaris NCTC 8313. Briefly: MIC by agar dilution, P. vulgaris NCTC 8313. The settings on record: Proteus vulgaris, NCTC8313, 17 h; P. vulgaris NCTC 8313; agar dilution, Mueller-Hinton agar; read-out: Minimal Inhibitory Concentration (MIC). An outline of the steps:
as §1

Experiment [20] has as its system Ps. aeruginosa NCTC 10490. As to the kind of experiment: MIC by agar dilution, Ps. aeruginosa NCTC 10490. The note with it: Pseudomonas aeruginosa, NCTC10490, 17 h, Mueller-Hinton agar, read-out: Minimal Inhibitory Concentration (MIC). The procedure, abridged:
as §1

The structures appear in SMILES notation. In brackets after ≈: the same amount, converted by molar mass.

`CON=C(C(=O)NC1C(=O)N2C(C(=O)[O-])=C(C[n+]3ccn4c(CO)ccc4c3)CSC12)c1csc(N)n1` (stereo not drawn) [Ex. 21, 7-β-[(Z)-2-(2-aminothiazol-4-yl)-2-methoxyiminoacetamido]-3-(6-hydroxymethylpyrrolo[1,2-a]pyrazinium-2-yl)methyl-3-cephem-4-carboxylate]: the MIC in experiment [1] was 50 µg/mL (≈ 92 µM); in experiment [2], 0.012 µg/mL (≈ 0.0221 µM); in experiment [3], 3.13 µg/mL (≈ 5.76 µM); in [4] it was at most 0.006 µg/mL; in experiment [5], 0.2 µg/mL (≈ 0.368 µM); in experiment [6] it was 0.2 µg/mL (≈ 0.368 µM). Besides, the MIC in experiment [7] is 0.012 µg/mL (≈ 0.0221 µM); in [8], at most 0.006 µg/mL; in experiment [9] it was 0.1 µg/mL (≈ 0.184 µM); in experiment [10], 0.78 µg/mL (≈ 1.43 µM); in experiment [11], at most 0.006 µg/mL; in [12], 0.78 µg/mL (≈ 1.43 µM). Besides, the MIC in experiment [13] is 6.25 µg/mL (≈ 11.5 µM); in experiment [14] it was 0.39 µg/mL (≈ 0.717 µM); in experiment [15], 0.012 µg/mL (≈ 0.0221 µM); in experiment [16], 0.012 µg/mL (≈ 0.0221 µM); in experiment [17], 0.1 µg/mL (≈ 0.184 µM); in experiment [18], at most 0.006 µg/mL. Also, the MIC was at most 0.006 µg/mL in experiment [19] and 0.1 µg/mL (≈ 0.184 µM) in experiment [20].
`CCON=C(C(=O)NC1C(=O)N2C(C(=O)[O-])=C(C[n+]3ccn4cccc4c3)CSC12)c1csc(N)n1` (stereo not drawn) [Ex. 3, 7-β-[(Z)-2-(2-aminothiazol-4-yl)-2-ethoxyiminoacetamido]-3-(pyrrolo[1,2-a]pyrazinium-2-yl)methyl-3-cephem-4-carboxylate]: the MIC in experiment [1] was 6.25 µg/mL (≈ 11.8 µM); in experiment [2], at most 0.006 µg/mL; in experiment [3] it was 0.39 µg/mL (≈ 0.739 µM); in experiment [4], at most 0.006 µg/mL; in [5], 0.025 µg/mL (≈ 0.0474 µM); in [6], 0.1 µg/mL (≈ 0.19 µM). For the same compound, the MIC in [7] was at most 0.006 µg/mL; in experiment [8], 0.012 µg/mL (≈ 0.0227 µM); in experiment [9] it was 0.1 µg/mL (≈ 0.19 µM); in experiment [10] it was 0.39 µg/mL (≈ 0.739 µM); in experiment [11] it was 0.012 µg/mL (≈ 0.0227 µM); in experiment [12], 0.39 µg/mL (≈ 0.739 µM). Further, the MIC in experiment [13] was 0.78 µg/mL (≈ 1.48 µM); in experiment [14], 0.2 µg/mL (≈ 0.379 µM); in [15], at most 0.006 µg/mL; in experiment [16], 0.025 µg/mL (≈ 0.0474 µM); in experiment [17], 0.2 µg/mL (≈ 0.379 µM); in [18], at most 0.006 µg/mL. Also, the figures for the MIC in experiment [19] and in experiment [20] were at most 0.006 µg/mL and 0.2 µg/mL (≈ 0.379 µM), respectively.
For `CO/N=C(\C(=O)N[C@@H]1C(=O)N2C(C(=O)[O-])=C(C[n+]3ccn4c(CO)ccc4c3C)CS[C@H]12)c1csc(N)n1` [Ex. 46, 7-β-[(Z)-2-(2-aminothiazol-4-yl)-2-methoxyiminoacetamido]-3-(6-hydroxymethyl-1-methylpyrrolo[1,2-a]pyrazinium-2-yl)methyl-3-cephem-4-carboxylate], the MIC is 50 µg/mL (≈ 89.7 µM) in experiment [1]; 0.05 µg/mL (≈ 0.0897 µM) in experiment [2]; 1.56 µg/mL (≈ 2.8 µM) in experiment [3]; 0.025 µg/mL (≈ 0.0448 µM) in [4]; 0.1 µg/mL (≈ 0.179 µM) in experiment [5]; 0.2 µg/mL (≈ 0.359 µM) in experiment [6]. Also, the MIC in [7] was determined as 0.05 µg/mL (≈ 0.0897 µM); in experiment [8], 0.05 µg/mL (≈ 0.0897 µM); in [9], 0.39 µg/mL (≈ 0.699 µM); in [10], 0.78 µg/mL (≈ 1.4 µM); in experiment [11], 0.012 µg/mL (≈ 0.0215 µM); in experiment [12] it was 1.56 µg/mL (≈ 2.8 µM). The MIC in [13] was 0.25 µg/mL (≈ 0.448 µM); in [14], 3.13 µg/mL (≈ 5.61 µM); in [15], 0.1 µg/mL (≈ 0.179 µM); in experiment [16], 0.05 µg/mL (≈ 0.0897 µM); in experiment [17] it was 0.1 µg/mL (≈ 0.179 µM); in [18], 0.025 µg/mL (≈ 0.0448 µM). Further, the MIC in experiment [19] was determined as 0.05 µg/mL (≈ 0.0897 µM); in experiment [20] it was 0.78 µg/mL (≈ 1.4 µM).

Source of the values: patent US5593984A, “Cephalosporin derivatives” (Yuhan Corporation, priority 1992, dated 1997).
